Source: article PMC10917278, “Structural insights into the modulation Of SOD1 aggregation By a fungal metabolite Phialomustin-B: Therapeutic potential in ALS” (PLOS ONE, 2024)

Target: T1, SOD1^WT (Homo sapiens, UniProt P00441)
T1 construct: The full-length constructs of SOD1-wild type (aa: 1–145); His-tag (cleaved yes); made in house; host or cells: E. coli BL21 DE3
Experiment: Thioflavin T (ThT) fluorescence aggregation assay, SOD1^WT
Assay type: biochemical
Conditions: 37 °C, reduced conditions
Procedure: Following the co-crystal structure elucidation of SOD1 in complex with PB, we wanted to identify the effect of PB on the aggregation of SOD1^WT and its disease mutant, SOD1^A4V. A comprehensive analysis of the anti-aggregation propensity of PB was performed using a ThT-based fluorescence assay and analytical size-exclusion based chromatography (SEC) assay. We used Thioflavin-T, a β-sheet formation reporter, to assess the aggregation of SOD1. Time lag (tlag) is a kinetic parameter used to evaluate the lag phase of fibrillation. Fibril elongation was used to evaluate the rate of β sheet formation. […] Similar effects on lag time are also observed for SOD1^A4V. […] Moreover, ThT-based aggregation assays were also performed for the PB site-specific mutants, SOD1^A123F, SOD1^K9F, SOD1^L42R, and SOD1^G10P (S4a, S4c, S4e and S4g Fig). As expected based on the abovementioned MST results, the aggregation analysis is inconclusive as these mutants, which correspond to the ligand binding residues, cause a loss of protein-ligand interactions.
Fig 6 Aggregation studies of metallated and reduced SOD1^WT and SOD1^A4V on treatment with PB. ThT fluorescence was monitored during the co-incubation of metallated SOD1^WT (50 μM) (a) or SOD1^A4V (50 μM) (b) with PB at 1:30 molar ratio at 37 °C with continuous shaking, under reduced conditions. The values were normalized to the maximal ThT intensity elicited by SOD1^WT or SOD1^A4V and fitted to a Boltzmann sigmoidal equation. The control and PB-treated species were compared to analyse the effects of PB on the aggregation of SOD1^WT and SOD1^A4V. Error bars indicate the standard deviation. Analytical SEC of metallated SOD1^WT (50 μM) (c) and SOD1^A4V (50 μM) (d) with PB were analyzed under reducing conditions before and after 24 hrs and 48 hrs incubation at 37 °C. The first peak eluting at the volume was denoted as oligomerized SOD1^WT/SOD1^A4V (L). The second, third, and fourth peaks were calculated as trimer (T), dimer (D), and monomer (M) species of SOD1^WT/SOD1^A4V running at 14.5 ml, 15.7 ml, and 16.5 ml, respectively. […] The monomer (M), dimer (D), trimer (T), and large aggregate (L) species are shown as green, purple, red, and black dotted lines, respectively. All the experiments were performed for n = 3 biological replicates.
Fig 7 Aggregation studies of de-metallated and reduced SOD1^WT and SOD1^A4V on treatment with PB. ThT fluorescence was monitored during the co-incubation of de-metallated SOD1^WT (50 μM) (a) or SOD1^A4V (50 μM) (b) with PB at 1:30 molar ratio at 37 °C with continuous shaking, under reduced conditions. The values were normalized to the maximal ThT intensity elicited by SOD1^WT or SOD1^A4V and fitted to a Boltzmann sigmoidal equation. The control and PB-treated species were compared to analyse PB’s effects on the aggregation of SOD1^WT and SOD1^A4V. Analytical SEC of de-metallated SOD1^WT (50 μM) (a) and SOD1^A4V (50 μM) (b) with PB were analysed under reducing conditions before and after 24 hrs and 48 hrs incubation at 37 °C. The first peak eluting at the volume was denoted as oligomerized SOD1^WT (L) runs at 9.2 ml. The second, third, and fourth peaks were calculated as trimer (T), dimer (D), and monomer (M) species of SOD1^WT/SOD1^A4V running at 14.5 ml, 15.7 ml, and 16.5 ml, respectively. […] In the case of SOD1^A4V, PB eliminates the formation of large aggregates compared to the control (48hrs-EC, EC represents control with EDTA). […]

[1] = De-metallated (5 mM EDTA) SOD1^WT 50 μM with PB at 1:30 molar ratio
[2] = Metallated SOD1^WT 50 μM with PB at 1:30 molar ratio

T1 sequence (P00441 whole entry): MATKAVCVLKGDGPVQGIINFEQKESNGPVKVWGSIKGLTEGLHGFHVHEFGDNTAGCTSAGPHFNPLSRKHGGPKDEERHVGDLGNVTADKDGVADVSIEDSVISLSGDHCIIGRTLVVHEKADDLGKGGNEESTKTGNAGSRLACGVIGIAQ

kapp [1]: 0.374 h⁻¹
t50 [1]: 1.851 h
tlag [1]: 1.84 h
kapp [2]: 0.233 h⁻¹
t50 [2]: 2.976 h
SMILES: CCCC[C@H](C)/C=C(C)/C=C/C(=O)O [PB, (S, 2E, 4E)-4,6-dimethyldeca-2,4-dienoic acid]
